“Also recorded” adds a separate entry of the source.

For test [1], the target named is T1, mouse TRPA1 (Mus musculus, UniProt Q8BLA8).
T1 construct: expressed in transfected cells; host or cells: CHO cells (tetracycline-induced for PatchXpress; mTRPA1-pcDNA5 named for the transient labelling experiment)
Briefly: Whole-cell electrophysiology of TRPA1-expressing CHO cells (pressure, hyperosmolarity, cold). The conditions noted are these: data not shown. The class given is cell-based. The text has this:
We tested if TRPA1 is activated by mechanical forces. The electrophysiological behavior of thermoTRP-expressing Chinese Hamster Ovary (CHO) cells was investigated with two different assays of mechanical stress—pressure application using the recording pipette and changes in external osmolarity.
Mechanosensory neurons are often classified as high- or low-threshold, characterizing responses to pain and touch, respectively. We tested the mechanical threshold of TRPA1 by applying a wide range of negative pipette pressures (FIG. 1C). TRPA1-expressing CHO cells are activated at −90 mmHg or higher, consistent with native high-threshold mechanical receptors involved in sensing pain (Cho et al., J Neurosci 22:1238, 2002). […] Gadolinium (Gd^3+) is considered a blocker of native mechanically-gated ion channels in animal tissues (Martinac et al., Physiol Rev 81:685, 2001). […] FM1-43 is a styryl dye that specifically labels sensory cells by entering through open transduction channels. […] Furthermore, it was observed that 10 μM of FM1 -43 was able to block cinnamaldehyde-induced currents in TRPA1-expressing CHO cells (n=8).
To ensure that the mechanical response we observe is not an artifact of heterologous expression system, we tested if native TRPA1-expressing neurons also respond to such stimuli. 5/6 cinnamaldehyde-sensitive (presumptive TRPA1-expressing) DRG neurons responded to an application of −200 mmHg of suction, while 0/21 cinnamaldehyde insensitive neurons responded (16 of 21 were capsaicin-sensitive) (FIG. 2B). Millimolar camphor was recently reported to inhibit basal currents and cold or agonist-activation of TRPA1.
Mammalian cell electrophysiology: ThermoTRP-expressing CHO cells (rat TRPV1, rat TRPV2, mouse TRPV3, rat TRPV4, mouse TRPM8, and mouse TRPA1), control CHO cells, and cultured rat DRG neurons were prepared as described in Story et al., Cell 112:819, 2003; and Bandell et al., Neuron 41:849, 2004. Electrophysiological recordings were performed as described in Bandell et al., Neuron 41:849, 2004. Briefly, CHO cells were clamped at −60 mV and 0.8 second ramps from −80 mV to +80 mV were run every 4 seconds. Currents from DRG neurons were recorded at −60 mV and for their current-voltage curve, 300 ms voltage step at +20 mV was used 40 ms before 800 ms ramp from -80 mV to +80 mV to minimize contamination of voltage gated Na^+ or Ca^2+ current. The pipette solution for temperature and hyperosmotic experiments consisted of (in mM) 140 CsCl, 5 EGTA, 10 HEPES, 2 MgATP, 0.2 NaGTP, titrated to pH 7.4 with CsOH. The base external solution for these experiments consisted of (in mM) 140 NaCl, 5KCl, 10 HEPES, 2CaCl2, 1MgCl2, titrated to pH 7.4 with NaOH. Mannitol was used to adjust osmolarity for hypertonic solutions. For mouse TRPV3 and rat TRPV2, external calcium was replaced with 5 mM EGTA. Gluconate was substituted for chloride in (±)-pressure and hypotonic experiments to eliminate the potential for endogenous swelling-activated chloride currents. For these experiments, pipette solution (295 mOsm) consisted of (in mM) 125 Cs-gluconate, 15CsCl, 5 EGTA, 10 HEPES, 2 MgATP, 0.2NaGTP, titrated to pH 7.4 with CsOH. The external solution consisted of (in mM) 90 Na-gluconate, 10 NaCl, 5 K-gluconate, 10 HEPES, 2 CaCl2, 1 MgCl2, titrated to pH 7.4 with NaOH. Osmolarity was adjusted with mannitol to 220 mOsm (hypotonic) or 298 mOsm 15 (isotonic). (±)-Pressure was hydrostatically delivered by the recording pipette using syringe pumping (Hamill et al., Annu Rev Physiol 59:621, 1997) and monitored through Pressure Monitor (World Precision Instruments). Warner temperature controller (TC-324B and CL-100) was used for the heating or cooling the perfused bath solutions. […] The number of cells (n) tested with -100 mmHg to −300 mmHg, ˜+100 mmHg, 450 mOsm, and 220 mOsm for each cell type, respectively, are: CHO cells, n=7, 14, 5, 12; TRPV1, n=6, 5, 7, 5; TRPV2, n=4, 5, 3, 5; TRPV3, n=3, 2, 3, 0; TRPM8, n=12, 4, 10, 0. […]

Test [2] concerns CFA-induced cold hyperalgesia. Briefly: CFA-induced cold hyperalgesia on a 5° C. plate. Type of test: in vivo. The conditions noted are these: rats.

T1 sequence (Q8BLA8 whole entry): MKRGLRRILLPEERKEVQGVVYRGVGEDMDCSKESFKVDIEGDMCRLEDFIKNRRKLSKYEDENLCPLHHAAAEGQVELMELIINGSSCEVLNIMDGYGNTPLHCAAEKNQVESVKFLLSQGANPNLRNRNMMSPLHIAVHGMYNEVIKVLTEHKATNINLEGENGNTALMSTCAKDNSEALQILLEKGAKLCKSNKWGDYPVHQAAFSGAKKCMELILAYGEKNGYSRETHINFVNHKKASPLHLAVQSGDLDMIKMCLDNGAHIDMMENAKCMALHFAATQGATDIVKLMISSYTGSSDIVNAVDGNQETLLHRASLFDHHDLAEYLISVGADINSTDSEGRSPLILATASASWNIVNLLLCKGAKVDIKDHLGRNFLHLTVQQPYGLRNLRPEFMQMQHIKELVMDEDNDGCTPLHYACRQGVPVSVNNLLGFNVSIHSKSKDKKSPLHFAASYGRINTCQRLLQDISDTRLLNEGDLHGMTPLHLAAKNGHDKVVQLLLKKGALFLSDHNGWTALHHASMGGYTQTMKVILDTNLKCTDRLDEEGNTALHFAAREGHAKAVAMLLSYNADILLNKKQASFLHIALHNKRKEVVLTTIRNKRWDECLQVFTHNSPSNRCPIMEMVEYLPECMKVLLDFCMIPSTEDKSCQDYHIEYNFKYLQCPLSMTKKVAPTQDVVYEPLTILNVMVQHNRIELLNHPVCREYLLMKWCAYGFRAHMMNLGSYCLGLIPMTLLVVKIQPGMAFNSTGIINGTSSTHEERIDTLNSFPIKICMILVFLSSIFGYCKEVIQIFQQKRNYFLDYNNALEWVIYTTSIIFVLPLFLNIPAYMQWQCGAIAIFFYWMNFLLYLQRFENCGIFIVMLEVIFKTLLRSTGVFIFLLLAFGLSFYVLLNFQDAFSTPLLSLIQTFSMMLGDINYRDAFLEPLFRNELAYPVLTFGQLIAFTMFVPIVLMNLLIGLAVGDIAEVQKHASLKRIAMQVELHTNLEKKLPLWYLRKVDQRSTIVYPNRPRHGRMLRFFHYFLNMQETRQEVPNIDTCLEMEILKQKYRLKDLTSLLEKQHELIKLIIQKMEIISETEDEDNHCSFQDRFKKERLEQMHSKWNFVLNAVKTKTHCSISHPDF

Turning to `CC(=Cc1ccc(Cl)cc1)C(C)=NO` [Compound 18, (Z)-4-(4-chlorophynyl)-3-methylbut-3-en-2-oxime], in test [1], the “block of TRPA1 responses in CHO cells induced by cold” value is reported as “blocked” and the “block of TRPA1 responses in CHO cells induced by pressure” value was “blocked”. Besides, the “CFA-induced cold hyperalgesia (flicks, licks, paw raises for 10 min)” value in test [2] is recorded as “reverses cold behaviours; also recorded: robust block”.

(Values after patent US20090175882A1, “METHODS AND COMPOSITIONS FOR TREATING HYPERALGESIA” (IRM LLC, priority 2006, published 2009).)
